Where a SMILES comes first, the peptide text is derived from it.
What was measured:
[1] = mouse, in vivo, ip
Experimental: A single intraperitoneal injection on day 1 was followed by a 14-day observation period. Parameters monitored included mortality, morbidity, clinical signs, and body weight. At the study’s end, gross pathology and organ necropsy were conducted. […] Evaluations encompassed clinical observations, body weight, food consumption, hematology, blood chemistry, gross pathology, selected organ necropsy, and weight, and histopathology examinations. Comprehensive study details are in Appendix pharmacological studies-1 and -2. […]
was assessed in the present study.
Methods: 4 groups (5 males and 5 females per group) were assigned for this study. In each gender, reference item control groups (1F+1M) received the reference item (Saline Solution, NaCl 0,9%) and 3 treated groups […]
4F+4M) mg/kg. All animals were IP dosed and followed daily for 2 weeks (5 days a week). During the study, mortality and general clinical observation, body weight, food consumption, hematology, blood chemistry, gross pathology, selected organ necropsy and weight and histopathology examination of control and high dose groups […]
dosing of five female and five male mice (Table 1 and Table 2). The choice of the number and the gender of the animals were based on OECD guidelines.
Study variables and end points […]
Observations for signs of morbidity and mortality were performed daily. […] The time of death was recorded as precisely as possible. […]

[2] = Pharmacokinetic profile in mice, LC/MS; assay type: in vivo, mouse; settings: mouse, iv, 100 mg/kg
Experimental: Pharmacokinetic profile of APLN-DM in mice
The aim of the current study was to evaluate pharmacokinetic properties of APLN-DM peptide administrated intravenously (IV) or intraperitoneously (IP) in Balb/C mice. […]
for the IP group). Development of quantification method was performed using liquid chromatography coupled to mass spectrometry (LC/MS).
Results: Samples obtained in vivo were analyzed according to quantification-developed method and the peptide was detectable until 15 minutes after administration. Analysis allowed determining that APLN-DM […]
All animals were divided to three groups of 27 animals, one of 12 animals and one of 3 animals (vehicle) and will receive the corresponding test item according to Table 1. Each animal was weighed and administered at the appropriate volume.
Concentration ROA Blood Individual animal numbers
Group No. Treatment Dose Collect
Table 11 - Group allocation
Development of analytic method
Standard range from 0.5 to 100 µM was prepared and analysed for each fragmented ion as previously […]
Standard curves obtained for each ion are represented in Figure 6.
Figure 8: Standard curves obtained by quantification of each fragmented ion The best linearity was obtained by quantifying the fragmented ion 785 (z=5).
Quantification of APLN-DM in samples
Summary of analytical method development:
Quantification method was performed according to previous work. In summary, samples were analysed with a LC-MS triple quadripole system (ESI QqQ). The chromatographic system was a UPLC activity (Waters) coupled to a mass spectrometer TSQ Quantum Ultra (Thermo) equipped with triple quadripole analyser and electrospray ionisation (ESI) system. The selected column was Kinetex F5 […] 50x2.1 mm (Phenomenex). The analysis was made by quantifying fragmented ion z=5 (m/z=785) in samples compared […]
quantitation was previously determined to be 0.5 µM. Samples were analysed after protein precipitation as […]
In vivo phase samples analysis
As the stability of peptide is low, even in frozen plasma, it was decided to re-run the in vivo phase for the highest dose and to use freshly prepared samples.
26 samples were used for analysis.
Only samples taken 5 and 10 minutes after peptide administration presented detectable concentrations (see
Table 9). While 15 min results were on the level of accuracy (linearity threshold values). At a later time […]
estimated based on the 5 and 10 min measurements.
Sample ID Area Calculated amount

CSCC[C@H](NC(=O)[C@@H]1CCCN1C(=O)CNC(=O)[C@H](CCCCN)NC(=O)[C@H](Cc1c[nH]cn1)NC(=O)[C@H](CO)NC(=O)[C@H](CC(C)C)NC(=O)[C@H](CCCNC(=N)N)NC(=O)[C@@H]1CCCN1C(=O)[C@H](CCCNC(=N)N)NC(=O)[C@H](CCC(N)=O)NC(=O)[C@H](CO)NC(=O)[C@H](CO)NC(=O)[C@H](Cc1ccccc1)NC(=O)[C@H](CCCCN)NC(=O)[C@H](CO)NC(=O)[C@H](CO)NC(=O)CNC(=O)CNC(=O)[C@H](CCC(N)=O)NC(=O)[C@H](Cc1c[nH]c2ccccc12)NC(=O)[C@@H]1CCCN1C(=O)CNC(=O)[C@@H]1CCCN1C(=O)CNC(=O)[C@H](CC(N)=O)NC(=O)[C@H](CCCNC(=N)N)NC(=O)[C@H](CO)NC(=O)CNC(=O)[C@H](CCCNC(=N)N)NC(=O)[C@@H]1CCCN1C(=O)[C@H](CCC(N)=O)NC(=O)[C@@H](NC(=O)[C@@H](N)CC(C)C)C(C)C)C(=O)N1CCC[C@H]1C(=O)N[C@@H](Cc1ccccc1)C(=O)O [APLN-DM] (H-LVQPRGSRNGPGPWQGGSSKFSSQRPRLSHKGPMPF-OH)
MTD repeated administrations / highest tested dose found safe [1]: 300 mg/kg/day | level at time molar at 5 min ([2]; Balb/C, plasma, group 2F, 100 mg/kg IV, 5 min, samples 1-3, no unit printed (standards in µM), read-out: Calculated amount in plasma sample): 0.793 µM | level at time molar at 10 min ([2]; Balb/C, plasma, group 2F, 100 mg/kg IV, 10 min, samples 1-3, read-out: Calculated amount in plasma sample): 658 nM | half-life ([2]; female, Balb/C mice plasma, LC/MS, estimated from the 5 and 10 min samples, read-out: half-life in vivo in mice): ~20 min
